This is an account of results in patent EP0590919A1, “Therapeutic agents for parkinson's disease” (KYOWA HAKKO KOGYO CO., LTD., priority 1992, dated 1994).

Molecules are shown by their SMILES. A value given as a limit tells only on which side of the number the result lay.

The test system of the first data set is dd-strain male mice. The data set is described as follows: Acute toxicity test (minimum lethal dose, oral). The class given is in vivo. Conditions: oral administration, three mice per group, mortality seven days after administration. Here is the method:
Test compounds were orally administered to groups of dd-strain male mice weighing 20 ± 1 g, each group consisting of three mice. Seven days after the administration, minimum lethal dose (MLD) of each compound was determined by observing the mortality.
On to `CCn1c(=O)c2c(nc(/C=C/c3cc(C)ccc3C)n2C)n(CC)c1=O` [Compound 34, (E)-8-(2,5-Dimethylstyryl)-1,3-diethyl-7-methylxanthine], for which the MLD was greater than 300 mg/kg.

On to `CCOc1ccc(/C=C/c2nc3c(c(=O)n(CC)c(=O)n3CC)n2C)cc1` [Compound 36, (E)-8-(4-Ethoxystyryl)-1,3-diethyl-7-methylxanthine], for which the MLD is recorded as greater than 300 mg/kg.

Molecule `CCCOc1ccc(/C=C/c2nc3c(c(=O)n(CC)c(=O)n3CC)n2C)cc1` [Compound 38, (E)-1,3-Diethyl-7-methyl-8-(4-propoxystyryl)xanthine] gave an MLD greater than 300 mg/kg.

Molecule `CCn1c(=O)c2c(nc(/C=C/c3ccc(OC)c(OC)c3Cl)n2C)n(CC)c1=O` [Compound 50, (E)-8-(2-Chloro-3,4-dimethoxystyryl)-1,3-diethyl-7-methylxanthine] showed an MLD greater than 300 mg/kg.

Molecule `COc1ccc(/C=C/c2nc3c(c(=O)n(C)c(=O)n3C)n2C)c(Cl)c1OC` [Compound 52, (E)-8-(2-Chloro-3,4-dimethoxystyryl)caffeine] yielded an MLD greater than 300 mg/kg.

For another data set, the target named is T1, A₂ receptor (Rattus norvegicus, UniProt P30543).
T1 construct: from tissue; host or cells: rat corpus striatum membrane preparation
T1 sequence (P30543 whole entry): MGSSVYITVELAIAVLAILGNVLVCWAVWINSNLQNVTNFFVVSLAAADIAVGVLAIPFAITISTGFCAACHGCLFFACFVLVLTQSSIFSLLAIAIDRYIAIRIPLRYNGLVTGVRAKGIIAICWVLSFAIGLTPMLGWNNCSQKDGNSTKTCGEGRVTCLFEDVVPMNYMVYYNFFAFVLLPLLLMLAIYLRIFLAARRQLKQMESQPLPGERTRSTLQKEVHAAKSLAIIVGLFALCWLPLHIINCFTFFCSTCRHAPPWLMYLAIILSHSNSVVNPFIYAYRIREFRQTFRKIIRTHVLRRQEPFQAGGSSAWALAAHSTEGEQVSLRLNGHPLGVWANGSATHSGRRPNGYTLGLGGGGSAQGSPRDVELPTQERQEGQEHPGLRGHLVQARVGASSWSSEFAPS
As to the kind of experiment: Adenosine A₂ receptor binding test (³H-NECA binding). Conditions: 10⁻⁴M; ³H-NECA binding, rat corpus striatum; read-out: Inhibition (%) A₂ Receptor. Here is the method: The similar procedure as in the above-described adenosine A₁ receptor binding test was repeated using rat corpus striatum to obtain the final precipitate of the tissue thereof. The precipitate was suspended in 50 mM Tris HCl buffer containing 10 mM magnesium chloride and 0.02 unit/mg tissue of adenosine deaminase (manufactured by Sigma Co.) to give a tissue concentration of 5 mg (wet weight)/ml.
The mixture solution was allowed to stand at 25°C for 120 minutes and then treated in the same manner as in the adenosine A₁ receptor binding test to determine the radioactivity bound to the A₂ receptors.
The inhibition rate of the test compound against the binding of A₂ receptor (³H-NECA binding) was calculated by the following equation: [formula] [Notes] • 1.
Take `CCn1c(=O)c2c(nc(/C=C/c3cc(C)ccc3C)n2C)n(CC)c1=O` [Compound 34, (E)-8-(2,5-Dimethylstyryl)-1,3-diethyl-7-methylxanthine]: the inhibition (usually the relative decrease from the control value, in per cent) at 100 µM came to 94%.

Turning to `CCn1c(=O)c2c(nc(/C=C/c3ccc(OC)c(OC)c3Cl)n2C)n(CC)c1=O` [Compound 50, (E)-8-(2-Chloro-3,4-dimethoxystyryl)-1,3-diethyl-7-methylxanthine], the inhibition at 100 µM came to 93%.

Consider `COc1ccc(/C=C/c2nc3c(c(=O)n(C)c(=O)n3C)n2C)c(Cl)c1OC` [Compound 52, (E)-8-(2-Chloro-3,4-dimethoxystyryl)caffeine], for which the inhibition at 100 µM was 83%.

The data set is the same for the next values; noted with them: 10⁻⁵M; ³H-NECA binding, rat corpus striatum; read-out: Inhibition (%) A₂ Receptor.
Regarding `CCn1c(=O)c2c(nc(/C=C/c3cc(C)ccc3C)n2C)n(CC)c1=O` [Compound 34, (E)-8-(2,5-Dimethylstyryl)-1,3-diethyl-7-methylxanthine], the inhibition at 10 µM turned out to be 90%.

As to `CCn1c(=O)c2c(nc(/C=C/c3ccc(OC)c(OC)c3Cl)n2C)n(CC)c1=O` [Compound 50, (E)-8-(2-Chloro-3,4-dimethoxystyryl)-1,3-diethyl-7-methylxanthine], the inhibition at 10 µM was found to be 88%.

As to `COc1ccc(/C=C/c2nc3c(c(=O)n(C)c(=O)n3C)n2C)c(Cl)c1OC` [Compound 52, (E)-8-(2-Chloro-3,4-dimethoxystyryl)caffeine], the inhibition at 10 µM amounted to 81%.

The same data set, now with this note: 10⁻⁶M; ³H-NECA binding, rat corpus striatum; read-out: Inhibition (%) A₂ Receptor.
On to `CCn1c(=O)c2c(nc(/C=C/c3cc(C)ccc3C)n2C)n(CC)c1=O` [Compound 34, (E)-8-(2,5-Dimethylstyryl)-1,3-diethyl-7-methylxanthine], for which the inhibition at 1 µM was 93%.

As to `CCOc1ccc(/C=C/c2nc3c(c(=O)n(CC)c(=O)n3CC)n2C)cc1` [Compound 36, (E)-8-(4-Ethoxystyryl)-1,3-diethyl-7-methylxanthine], the inhibition at 1 µM worked out at 101%.

In the case of `CCCOc1ccc(/C=C/c2nc3c(c(=O)n(CC)c(=O)n3CC)n2C)cc1` [Compound 38, (E)-1,3-Diethyl-7-methyl-8-(4-propoxystyryl)xanthine], the inhibition at 1 µM was 94%.

As for `CCn1c(=O)c2c(nc(/C=C/c3ccc(OC)c(OC)c3Cl)n2C)n(CC)c1=O` [Compound 50, (E)-8-(2-Chloro-3,4-dimethoxystyryl)-1,3-diethyl-7-methylxanthine], the inhibition at 1 µM stood at 95%.

Take `COc1ccc(/C=C/c2nc3c(c(=O)n(C)c(=O)n3C)n2C)c(Cl)c1OC` [Compound 52, (E)-8-(2-Chloro-3,4-dimethoxystyryl)caffeine]: the inhibition at 1 µM stood at 88%.

The data set is the same for the next values; noted with them: 10⁻⁷M; ³H-NECA binding, rat corpus striatum; read-out: Inhibition (%) A₂ Receptor.
On to `CCn1c(=O)c2c(nc(/C=C/c3cc(C)ccc3C)n2C)n(CC)c1=O` [Compound 34, (E)-8-(2,5-Dimethylstyryl)-1,3-diethyl-7-methylxanthine], for which the inhibition at 0.1 µM was 86%.

For the molecule `CCOc1ccc(/C=C/c2nc3c(c(=O)n(CC)c(=O)n3CC)n2C)cc1` [Compound 36, (E)-8-(4-Ethoxystyryl)-1,3-diethyl-7-methylxanthine], the inhibition at 0.1 µM was determined as 71%.

For `CCCOc1ccc(/C=C/c2nc3c(c(=O)n(CC)c(=O)n3CC)n2C)cc1` [Compound 38, (E)-1,3-Diethyl-7-methyl-8-(4-propoxystyryl)xanthine], the inhibition at 0.1 µM came to 71%.

In the case of `CCn1c(=O)c2c(nc(/C=C/c3ccc(OC)c(OC)c3Cl)n2C)n(CC)c1=O` [Compound 50, (E)-8-(2-Chloro-3,4-dimethoxystyryl)-1,3-diethyl-7-methylxanthine], the inhibition at 0.1 µM was determined as 88%.

For the molecule `COc1ccc(/C=C/c2nc3c(c(=O)n(C)c(=O)n3C)n2C)c(Cl)c1OC` [Compound 52, (E)-8-(2-Chloro-3,4-dimethoxystyryl)caffeine], the inhibition at 0.1 µM turned out to be 78%.

The test system of the next data set is Haloperidol-Induced Catalepsy. The data set is described as follows: Effect on haloperidol-induced catalepsy. Format: in vivo, mice. Conditions: Mus musculus, 1 h; ten mice at each dose, effective = catalepsy score 3 or less, Probit analysis; oral; read-out: ED₅₀. Here is the method: Haloperidol (Janssen Pharmaceutica) suspended in 0.3% CMC was intraperitoneally administered to each mouse at a dose of 1.0 mg/kg. Test compounds were suspended in 0.3% CMC or in injectable distilled water (Otsuka Pharmaceutical Co., Ltd.) containing Tween 80. L-DOPA (Kyowa Hakko Kogyo Co., Ltd.) and benserazide hydrochloride (Kyowa Hakko Kogyo Co., Ltd.) were suspended in 0.3% CMC. One hour after the haloperidol administration, the test compound suspensions and the control suspension [injectable distilled water (Otsuka Pharmaceutical Co., Ltd.) containing Tween 80] containing no test compound were orally administered to separate groups of the mice (0.1 ml per 10 g of body weight). One hour after the administration of the test compound, the forelimbs of each mouse and subsequently the hindlimbs of the same mouse were placed on a 4.5 cm-high, 1.0 cm-wide bar and catalepsy was estimated. […] The catalepsy score and the standard of judgment are shown below. […] The number of the animals showing remission against catalepsy is the number of the mice for which the catalepsy score was not more than 4 points. […] The ED₅₀ values were calculated by Probit analysis.
Turning to `CCn1c(=O)c2c(nc(/C=C/c3cc(C)ccc3C)n2C)n(CC)c1=O` [Compound 34, (E)-8-(2,5-Dimethylstyryl)-1,3-diethyl-7-methylxanthine], the ED50 came to 2.6 mg/kg.

Regarding `CCOc1ccc(/C=C/c2nc3c(c(=O)n(CC)c(=O)n3CC)n2C)cc1` [Compound 36, (E)-8-(4-Ethoxystyryl)-1,3-diethyl-7-methylxanthine], the ED50 came out at 1.5 mg/kg.

Turning to `CCCOc1ccc(/C=C/c2nc3c(c(=O)n(CC)c(=O)n3CC)n2C)cc1` [Compound 38, (E)-1,3-Diethyl-7-methyl-8-(4-propoxystyryl)xanthine], the ED50 was found to be 2.5 mg/kg.

As for `CCn1c(=O)c2c(nc(/C=C/c3ccc(OC)c(OC)c3Cl)n2C)n(CC)c1=O` [Compound 50, (E)-8-(2-Chloro-3,4-dimethoxystyryl)-1,3-diethyl-7-methylxanthine], the ED50 was found to be 3.8 mg/kg.

Take `COc1ccc(/C=C/c2nc3c(c(=O)n(C)c(=O)n3C)n2C)c(Cl)c1OC` [Compound 52, (E)-8-(2-Chloro-3,4-dimethoxystyryl)caffeine]: the ED50 worked out at 1.7 mg/kg.

The same data set, now with this note: of five mice, catalepsy score not more than 4 points; 10 mg/kg orally.
`CCn1c(=O)c2c(nc(/C=C/c3cc(C)ccc3C)n2C)n(CC)c1=O` [Compound 34, (E)-8-(2,5-Dimethylstyryl)-1,3-diethyl-7-methylxanthine]: the “Number of the Animals Showing Remission” value came out at 5.

Take `CCOc1ccc(/C=C/c2nc3c(c(=O)n(CC)c(=O)n3CC)n2C)cc1` [Compound 36, (E)-8-(4-Ethoxystyryl)-1,3-diethyl-7-methylxanthine]: the “Number of the Animals Showing Remission” value worked out at 5.

In the case of `CCCOc1ccc(/C=C/c2nc3c(c(=O)n(CC)c(=O)n3CC)n2C)cc1` [Compound 38, (E)-1,3-Diethyl-7-methyl-8-(4-propoxystyryl)xanthine], the “Number of the Animals Showing Remission” value is 4.

Regarding `CCn1c(=O)c2c(nc(/C=C/c3ccc(OC)c(OC)c3Cl)n2C)n(CC)c1=O` [Compound 50, (E)-8-(2-Chloro-3,4-dimethoxystyryl)-1,3-diethyl-7-methylxanthine], the “Number of the Animals Showing Remission” value worked out at 4.

For the molecule `COc1ccc(/C=C/c2nc3c(c(=O)n(C)c(=O)n3C)n2C)c(Cl)c1OC` [Compound 52, (E)-8-(2-Chloro-3,4-dimethoxystyryl)caffeine], the “Number of the Animals Showing Remission” value came out at 5.

Staying with this data set, now noted: rate of decrease in total score based on control group; 10 mg/kg orally.
For the molecule `CCn1c(=O)c2c(nc(/C=C/c3cc(C)ccc3C)n2C)n(CC)c1=O` [Compound 34, (E)-8-(2,5-Dimethylstyryl)-1,3-diethyl-7-methylxanthine], the “Remission Rate (%)” value was 68%.

As for `CCOc1ccc(/C=C/c2nc3c(c(=O)n(CC)c(=O)n3CC)n2C)cc1` [Compound 36, (E)-8-(4-Ethoxystyryl)-1,3-diethyl-7-methylxanthine], the “Remission Rate (%)” value was 76%.

For `CCCOc1ccc(/C=C/c2nc3c(c(=O)n(CC)c(=O)n3CC)n2C)cc1` [Compound 38, (E)-1,3-Diethyl-7-methyl-8-(4-propoxystyryl)xanthine], the “Remission Rate (%)” value stood at 68%.

As for `CCn1c(=O)c2c(nc(/C=C/c3ccc(OC)c(OC)c3Cl)n2C)n(CC)c1=O` [Compound 50, (E)-8-(2-Chloro-3,4-dimethoxystyryl)-1,3-diethyl-7-methylxanthine], the “Remission Rate (%)” value is listed as 24%.

Turning to `COc1ccc(/C=C/c2nc3c(c(=O)n(C)c(=O)n3C)n2C)c(Cl)c1OC` [Compound 52, (E)-8-(2-Chloro-3,4-dimethoxystyryl)caffeine], the “Remission Rate (%)” value is given as 60%.

Staying with this data set, now noted: total catalepsy score of five mice (25 points at the full); 10 mg/kg orally, haloperidol 1.0 mg/kg i.p.
`CCn1c(=O)c2c(nc(/C=C/c3cc(C)ccc3C)n2C)n(CC)c1=O` [Compound 34, (E)-8-(2,5-Dimethylstyryl)-1,3-diethyl-7-methylxanthine]: the “Total Score” value came out at 8.

With `CCOc1ccc(/C=C/c2nc3c(c(=O)n(CC)c(=O)n3CC)n2C)cc1` [Compound 36, (E)-8-(4-Ethoxystyryl)-1,3-diethyl-7-methylxanthine], the “Total Score” value is listed as 6.

Regarding `CCCOc1ccc(/C=C/c2nc3c(c(=O)n(CC)c(=O)n3CC)n2C)cc1` [Compound 38, (E)-1,3-Diethyl-7-methyl-8-(4-propoxystyryl)xanthine], the “Total Score” value stood at 8.

In the case of `CCn1c(=O)c2c(nc(/C=C/c3ccc(OC)c(OC)c3Cl)n2C)n(CC)c1=O` [Compound 50, (E)-8-(2-Chloro-3,4-dimethoxystyryl)-1,3-diethyl-7-methylxanthine], the “Total Score” value stood at 19.

As to `COc1ccc(/C=C/c2nc3c(c(=O)n(C)c(=O)n3C)n2C)c(Cl)c1OC` [Compound 52, (E)-8-(2-Chloro-3,4-dimethoxystyryl)caffeine], the “Total Score” value worked out at 10.
